Measurements reported in patent US20060223884A1, “Compounds and compositions for use in the prevention and treatment of obesity and related syndromes” (priority 2005, published 2006).
Like-named read-outs stand apart in the source and are kept apart here.

Key:
[1] = assay type: in vivo; conditions: ob/ob mice
Source text: The objective of this study was to evaluate the effect of chronic administration of 4-hydroxyisoleucine (4-OH, compound 14a) on food consumption and body weight gain in a genetic model of obesity, the ob/ob mouse. Body weight gain and food consumption were monitored for 1 week prior to the commencement of treatment, and then for the 56 days of treatment.
A total of 16 animals were used in the study. The animals were distributed into 2 groups (1 treated, 1 control group, all on standard chow). Each group was composed of 8 animals. The mice were randomized according to body weight values.
For the eight weeks of treatment, the test agent was dissolved in reverse osmosis water. 4-hydroxyisoleucine was aliquoted and kept at 4° C. Control animals received reverse osmosis water twice daily (group 1). Mice from group 2 were treated twice daily with 4-OH at 100 mg/kg. All groups were treated by oral gavage. Treatment commenced on Day 0 and ended on Day 56 (FIGS. 16A and 16B). Food consumption was measured daily and averaged on a weekly basis beginning one week before the start of treatment as shown in FIG. 16B.

[2] = DIO mice
Source text: The objective of this study was to evaluate the effect of chronic administration of 4-hydroxyisoleucine (4-OH, compound 14a) and Rosiglitazone, administered alone or in combination, on food consumption and body weight gain of DIO-mice. Both parameters were monitored for 1 week prior to the commencement of treatment, then for the 28 days of treatment and for an additional 7 days post-treatment.
A total of 72 animals were used in the study. The animals were distributed into 6 groups (5 treated, 1 control group, all on high fat diet). Each group was composed of 12 animals. The mice were randomized according to body weight and basal glycemia values following a 5±0.5 hour fasting period.
For the four weeks of treatment, the test articles were dissolved in reverse osmosis water. 4-Hydroxyisoleucine was aliquoted and kept at 4° C. (administration to groups 2, 3, and 6), while Rosiglitazone was freshly prepared daily and kept at 4° C. between the AM and PM administration to groups 4, 5, and 6. Control animals received reverse osmosis water twice daily (group 1). Mice from groups 2 and 3 were treated twice daily with 4-OH at 50 and 100 mg/kg, respectively. Animals from groups 4 and 5 received 1.5 and 5 mg/kg of Rosiglitazone, respectively. […] All groups were treated by oral gavage. Treatment commenced on Day 0 and ended on Day 28 (FIGS. 17A and 17C).
Food consumption was measured and averaged on a weekly basis beginning one week before the start of treatment as shown in FIGS. 17B and 17D as week −1. Similarly, food consumption was monitored for one week after treatment was stopped and is shown as week 5 in FIGS. 17B and 17D. In FIG. 17B, the food consumption over time for various treatment groups is illustrated by the bar graph.

[3] = Oral Glucose Tolerance Test (OGTT) in DIO mice, 4-hydroxyisoleucine and Exendin-4 alone or in combination (Example 5); assay type: in vivo, C57BI/6 mice; conditions: single agent, 4-OH 50 mg/kg or Exendin-4 0.01 mg/kg, after 7, 14 and 21 days of treatment
Protocol: Glycemic response was monitored by an Oral Glucose Tolerance Test (OGTT) performed on days 0, 7, 14, and 21 of treatment.
A total of 56 animals were used in the study. The animals were distributed into 7 groups (5 treated, 1 normal diet control, and 1 high fat diet control group). Each group was composed of 8 animals. […] For the three weeks of treatment, the test agents were dissolved in sterile saline for injection (USP). 4-Hydroxyisoleucine was kept at 4° C. (administration to groups 3, 4, and 7) while a frozen aliquot of Exendin-4 was thawed each dosing day for administration to groups 5, 6, and 7. Control animals received sterile saline, twice daily (groups 1 and 2). […] Animals from groups 5 and 6 received sterile saline as the AM treatment, while the PM treatment consisted of 0.05 and 0.01 mg/kg of Exendin-4, respectively. For Group 7, the AM treatment consisted of 50 mg/kg 4-OH only, while the PM treatment consisted of 0.01 mg/kg of Exendin-4+50 mg/kg of 4-OH. All groups were treated by subcutaneous injection.
On days 0, 7, 14, and 21, animals fasted for approximately 5 hours were challenged with an Oral Glucose Tolerance Test (OGTT) at 5 hours post-AM test agent administration. Whole blood glucose levels were monitored using a hand-held glucometer prior to OGTT and for up to 2 hours post-glucose challenge.

[4] = Prevention of weight gain in Wistar rats fed a high fat, high sucrose diet (Example 10); assay type: in vivo; conditions: Wistar rats on HFHS diet, 100 mg/kg twice daily oral
Source text: The aim of this study was to evaluate the effect of chronic administration of 4-hydroxyisoleucine (4-OH, Compound 14a) on food consumption, tissue weight, and body weight gain of normal Wistar rats fed a high fat, high sucrose diet (HFHS).
The animals were acclimated for 1 week and fed standard chow prior to the commencement of treatment, then for the 28 days of the treatment the animals were fed a high fat, high sucrose diet (HFHS). A total of 30 animals were used in the study. The animals were distributed into 3 groups each composed of 10 animals: 1 group fed HFHS with treatment, 1 untreated control group fed standard chow, and 1 untreated group fed HFHS. Animals were housed separately and food consumption was monitored daily.
For the four weeks of treatment, the test compounds were dissolved in reverse osmosis water. 4-hydroxyisoleucine (4-OH) was aliquoted and kept at 4° C. Treated animals received twice daily oral administration of 4-OH at 100 mg/kg per dose. Control animals received water twice daily.

[5] = cited from earlier work
[6] = 4-OH 50 or 100 mg/kg twice daily

What does the source list for C[C@@H]([C@H](C)O)[C@H](N)C(=O)O [compound 14a, (2S,3R,4S)-4-Hydroxyisoleucine]?
weight gain during the course of treatment ([1]; 100 mg/kg twice daily oral): moderation of weight gain; weight gain as compared to the control group ([1]; 100 mg/kg twice daily oral, Day 21 to Day 56): significantly reduced; tolerability of treatment ([1]; 100 mg/kg twice daily, oral gavage, 56 days): well tolerated; food consumption ([1]; first three weeks of treatment but not later on): slight decrease in food consumption; weight gain induced by Rosiglitazone ([2]; 4-OH 50 mg/kg co-administered with Rosiglitazone 1.5 mg/kg): able to modulate the weight gain induced by Rosiglitazone; food consumption (FIG. 17D) ([2]; 4-OH 50 mg/kg, Rosiglitazone 1.5 mg/kg, or the two co-administered): reduction in food consumption during the first week, but not after; weight gain ([2]; 4-OH 100 mg/kg twice daily oral, 28 days): Moderation of weight gain; food consumption, first week of treatment (FIG. 17B) [2, 6]: decreased; food consumption, remainder of the treatment phase (FIG. 17B) [2, 6]: returned to pre-treatment levels; glycemic levels following OGTT challenge [3]: consistently effective at reducing glycemic levels; epididymal and peri-renal adipose tissue ([4]; 28 days): reduction of epididymal and peri-renal adipose tissue; tolerability of treatment ([4]; 28 days): well tolerated; weight gain ([4]; 28 days): Moderation of weight gain; muscle, brown fat, and organ weight ([4]; 28 days (data not shown)): not affected; food consumption ([4]; 28 days, could not account for the differences in weight gain): reduction in food consumption; insulinotropic and insulin sensitizing activities ([5]; Broca et al. 1999, 2000, 2004, WO 97/32577, WO 01/15689): insulinotropic and insulin sensitizing activities; antidyslipidemic activities ([5]; Narender et al. 2006): antidyslipidemic activities
